From the CheMixHub ionic liquid set
± gives the uncertainty stated by the source.

Assay: xn = mol fraction of the nth substance listed
Settings: for electrical conductivity: 298 K, 101 kPa; for viscosity: 100 kPa

CCCCCCCCn1cc[n+](C)c1C.[Cl-] + O
Settings | electrical conductivity [S/m]
x1 = 2.703e-05 | 0.02 ± 0.01
x1 = 0.0001369 | 0.09 ± 0.01
x1 = 0.000245 | 0.14 ± 0.01
x1 = 0.0003531 | 0.2 ± 0.02
x1 = 0.0004899 | 0.27 ± 0.02
x1 = 0.0007347 | 0.32 ± 0.03
x1 = 0.0008984 | 0.41 ± 0.03
x1 = 0.001197 | 0.48 ± 0.04
x1 = 0.001468 | 0.58 ± 0.05
x1 = 0.001766 | 0.69 ± 0.06
x1 = 0.002039 | 0.79 ± 0.06
x1 = 0.002391 | 0.88 ± 0.07
x1 = 0.002715 | 0.99 ± 0.08
x1 = 0.003203 | 1.14 ± 0.09
x1 = 0.003772 | 1.32 ± 0.11
x1 = 0.004474 | 1.48 ± 0.12
x1 = 0.005202 | 1.66 ± 0.13
x1 = 0.005876 | 1.77 ± 0.14
x1 = 0.006575 | 1.9 ± 0.15
x1 = 0.007219 | 2.02 ± 0.16
x1 = 0.007783 | 2.11 ± 0.17
x1 = 0.008319 | 2.19 ± 0.18
x1 = 0.0088 | 2.26 ± 0.18
x1 = 0.009202 | 2.34 ± 0.19
x1 = 0.009496 | 2.39 ± 0.19

CCCCCC[n+]1ccn(C)c1.C[C@H](N)C(=O)[O-] + O
viscosity [mPa·s]
Settings | 288.15 K | 293.15 K | 298.15 K | 303.15 K | 308.15 K | 313.15 K | 318.15 K | 323.15 K | 328.15 K
x1 = 0.000299 | 1.156 ± 0.016 | 1.017 ± 0.016 | 0.902 ± 0.015 | 0.809 ± 0.014 | 0.728 ± 0.013 | 0.661 ± 0.013 | 0.603 ± 0.013 | 0.554 ± 0.012 | 0.512 ± 0.012
x1 = 0.0003981 | 1.162 ± 0.017 | 1.022 ± 0.016 | 0.907 ± 0.015 | 0.813 ± 0.014 | 0.732 ± 0.013 | 0.664 ± 0.013 | 0.606 ± 0.013 | 0.557 ± 0.013 | 0.514 ± 0.012
x1 = 0.0004989 | 1.167 ± 0.018 | 1.026 ± 0.016 | 0.911 ± 0.015 | 0.816 ± 0.014 | 0.735 ± 0.013 | 0.666 ± 0.013 | 0.608 ± 0.013 | 0.559 ± 0.013 | 0.516 ± 0.012
x1 = 0.0009991 | 1.203 ± 0.018 | 1.057 ± 0.019 | 0.937 ± 0.017 | 0.838 ± 0.016 | 0.755 ± 0.015 | 0.684 ± 0.014 | 0.626 ± 0.014 | 0.573 ± 0.013 | 0.53 ± 0.013
x1 = 0.003 | 1.361 ± 0.019 | 1.191 ± 0.018 | 1.05 ± 0.016 | 0.933 ± 0.015 | 0.833 ± 0.014 | 0.754 ± 0.013 | 0.684 ± 0.013 | 0.626 ± 0.013 | 0.576 ± 0.012
x1 = 0.00499 | 1.512 ± 0.019 | 1.325 ± 0.018 | 1.162 ± 0.016 | 1.027 ± 0.015 | 0.916 ± 0.014 | 0.825 ± 0.014 | 0.745 ± 0.013 | 0.681 ± 0.013 | 0.625 ± 0.012
x1 = 0.006965 | 1.656 ± 0.02 | 1.445 ± 0.018 | 1.272 ± 0.016 | 1.118 ± 0.015 | 0.997 ± 0.014 | 0.893 ± 0.014 | 0.805 ± 0.013 | 0.736 ± 0.013 | 0.672 ± 0.012
x1 = 0.008965 | 1.819 ± 0.02 | 1.573 ± 0.018 | 1.367 ± 0.016 | 1.202 ± 0.015 | 1.069 ± 0.014 | 0.958 ± 0.014 | 0.866 ± 0.013 | 0.781 ± 0.013 | 0.717 ± 0.013
x1 = 0.01103 | 1.954 ± 0.02 | 1.694 ± 0.018 | 1.475 ± 0.017 | 1.287 ± 0.015 | 1.145 ± 0.015 | 1.026 ± 0.014 | 0.928 ± 0.013 | 0.831 ± 0.013 | 0.763 ± 0.013
x1 = 0.01294 | 2.097 ± 0.021 | 1.814 ± 0.019 | 1.577 ± 0.017 | 1.377 ± 0.016 | 1.223 ± 0.015 | 1.087 ± 0.014 | 0.984 ± 0.013 | 0.887 ± 0.013 | 0.807 ± 0.013
x1 = 0.01501 | 2.242 ± 0.021 | 1.953 ± 0.018 | 1.69 ± 0.017 | 1.466 ± 0.016 | 1.303 ± 0.015 | 1.161 ± 0.014 | 1.035 ± 0.013 | 0.936 ± 0.013 | 0.854 ± 0.013
x1 = 0.01801 | 2.455 ± 0.022 | – | – | – | – | – | – | – | –
